In patent US20070111265A1, “Ligands for mineralocorticoid receptor (MR) and methods for screening for or designing MR ligands” (Van Andel Research Institute, priority 2005, published 2007):
Changes are numbered by the printed parent chain. Entries after “also recorded” stand apart in the source; their conditions may differ. Like-named read-outs stand apart in the source and are kept apart here.

Columns and labels:
[1] = target: T1, GR Q642L (Homo sapiens, UniProt P04150, Q642L); experiment: MMTV luciferase reporter assay in Cos-7 cells; type: cell-based; details: Cos-7, MMTV-Luc
T1 construct: reverse mutations in the full length GR receptor (P637S and Q642L); expressed in transfected cells; host or cells: Cos-7
T1 sequence (P04150 1-777 Q642L): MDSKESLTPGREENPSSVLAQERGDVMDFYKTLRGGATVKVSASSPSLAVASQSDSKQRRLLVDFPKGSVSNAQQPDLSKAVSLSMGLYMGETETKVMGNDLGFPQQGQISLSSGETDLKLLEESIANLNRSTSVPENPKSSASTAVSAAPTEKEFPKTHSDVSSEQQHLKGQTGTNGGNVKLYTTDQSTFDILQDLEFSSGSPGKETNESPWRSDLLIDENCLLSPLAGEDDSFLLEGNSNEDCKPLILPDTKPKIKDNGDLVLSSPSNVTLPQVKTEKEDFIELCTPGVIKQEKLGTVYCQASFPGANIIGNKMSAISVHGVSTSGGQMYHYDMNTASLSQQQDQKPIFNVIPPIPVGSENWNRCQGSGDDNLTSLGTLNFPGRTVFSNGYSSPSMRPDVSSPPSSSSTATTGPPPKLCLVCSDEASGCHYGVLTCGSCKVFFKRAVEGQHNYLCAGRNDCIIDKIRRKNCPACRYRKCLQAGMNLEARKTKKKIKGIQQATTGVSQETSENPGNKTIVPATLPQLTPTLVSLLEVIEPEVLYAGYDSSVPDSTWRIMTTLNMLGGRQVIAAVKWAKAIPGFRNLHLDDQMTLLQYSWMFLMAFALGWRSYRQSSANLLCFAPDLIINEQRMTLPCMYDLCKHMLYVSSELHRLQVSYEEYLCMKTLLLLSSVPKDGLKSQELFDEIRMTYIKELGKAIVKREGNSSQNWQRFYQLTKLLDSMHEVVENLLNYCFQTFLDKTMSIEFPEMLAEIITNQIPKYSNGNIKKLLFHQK
Description: (§1) Cos-7 cells were maintained in DMEM containing 10% fetal bovine serum (FBS) and were transiently transfected using Lipofectamine 2000 (Invitrogen). […] Cells were transfected in Opti-MEM with 400 ng of MMTV-Luc reporter plasmid and 400 ng of receptor expression vector (pRS vector) encoding full-length GR and MR respectively (ATCC). […] Luciferase data were normalized to Renilla activity as an internal control.
(§2) To validate the role of the key MR pocket residues in hormone recognition, the inventors mutated S843 and L848 to the corresponding GR residues (S843P and L848Q) within the context of the full length wild type receptor. […] We also performed reverse mutations in the full length GR receptor (P637S and Q642L) and tested them in the same MMTV reporter.

[2] = target: T2, wild type GR (full-length) (Homo sapiens, UniProt P04150); experiment: MMTV luciferase reporter assay in Cos-7 cells; type: cell-based
T2 sequence (P04150 1-777): T1 sequence (P04150 1-777 Q642L) with L642Q
Description: as §1, §2

Compound	activation of GR Q642L [1]	EC50 ([2]; Cos-7, MMTV-Luc, read-out: EC50, activation of wild type GR) [nM]	EC50 ([2]; summary of FIG. 5 dose-response, read-out: affinity to GR (shown in FIG. 5)) [nM]
C[C@]12CCC(=O)C=C1CC[C@@H]1[C@@H]2[C@@H](O)C[C@@]2(C)[C@H]1CC[C@]2(O)C(=O)CO [cortisol]	completely abolished activation; also recorded: inability of cortisol to activate		
C[C@]12C[C@H](O)[C@H]3[C@@H](CCC4=CC(=O)CC[C@@]43C)[C@@H]1CC[C@@H]2C(=O)CO [corticosterone]	remained intact	~20	~10
